# According to patent publication US11679123B2, “N-acylated hyaluronic acid for hyperuricemia and gouty arthritis” (Queen's University at Kingston, priority 2018, dated 2023):
# Legend:
# [1] = system: rats with MSU-induced gouty arthritis; experiment: Dose screening on MSU crystals-induced acute gout in rats: ankle swelling ratio; type: in vivo, Wistar rats; conditions: P<0.05
# Procedure: 48 male Wistar rats (8 weeks: 180-200 g), purchased from Yisi Experimental Animal Technology Company Ltd, Jilin, China (SCXK (Ji)-2016-0003), were housed in plastic cages and maintained on a 12-h light/12-h dark cycle (lights on 7:00-19:00 h) under standard laboratory conditions of 55% relative humidity and 23° C.±1° C. They were given standard chow and tap water ad libitum. All experimental procedures were approved by the Animal Ethics Committee of Jilin University (Reference NO. 201605).
# An experimental model of MSU-induced gouty arthritis was used in order to evaluate the anti-inflammatory activities of BHA similar as previous studies with some modifications. Rats were randomly divided into eight groups (n=6), including control group (NC), model group (MC), 0.3 mg/kg colchicine group (COL), 5 μg BHA group (5BHA), 10 μg BHA group (10BHA), 25 μg BHA group (25BHA), 50 μg BHA group (50BHA), 100 μg BHA group (100BHA). MSU crystals were suspended in 0.9% sterile saline (30 mg/mL) prior to use. Rats in the colchicine group were orally administered colchicine (0.3 mg/kg) for 8 days. At day 6, MSU solution (100 μL of 30 mg/mL) was intra-articular injected at the right ankles of all rats except the NC group m which were injected with saline solution. 5BHA, 10BHA, 25BHA, 50BHA and 100BHA groups received intra-articular injections of 5, 10, 25, 50, or 100 μg BHA along with MSU solution (100 μL of 30 mg/mL MSU solution contains 5, 10, 25, 50 or 100 μg BHA) were administered according to the stated BHA doses.
# The right ankle circumference of all rats at 0, 4, 12, 24 and 48 h after MSU injection was measured. The swelling ratio (%) was used for evaluating the gouty arthritis and calculated according to the change of the circumference following the formula: Swelling ratio (%)=(Ct−C0)/C0. Wherein, Ct represented the circumference at t hour and C0 represented the circumference at 0 hour.
# xanthine oxidase (XO) = experiment: XO levels in serum and liver of hyperuricemic mice; type: in vivo, Balb/C mice
# Procedure: (§1) Due to the presence of uricase in mice, a hyperuricemic mouse model was established by using uricase inhibitor and large amounts of purine. Mice were randomly divided into five groups (n=10), including the control group (NC), model group (MC), 20 mg/kg of AL (Shimao Tianjie Pharmaceutical Co. Ltd, Jiangsu, China) group, 10 μg BHA group (10BHA) and 50 μg BHA group (50BHA). Oral administration of AL and intraperitoneal injection of BHA were administered according to the required dose, and all mice were gavage fed 20 g/kg yeast extract powder 12 h prior to the administration of AL and BHA except for NC mice for 8 days. From the 6th to 8th day, 1-h prior to AL and BHA administration, 300 mg/kg of OXO (Sigma, USA) was intraperitoneally injected to all of the mice except those in the control group. At 1 h after the final drug administration, blood was sampled from caudal veins of the mice, serum was separated and their livers were quickly collected (FIG. 3A, E). All samples were stored at −80° C. until assay measurements were performed.
# (§2) The serum UA concentrations and XO levels in the serum and liver were determined with a standard diagnostic kit (MAK077, MAK078 Sigma, USA) according to the manufacturer's instructions.
# [2] = system: stimulated human cultured macrophages; conditions: THP-1, BHA of reduced molecular weight; cited from earlier work
# hyperuricemic mice = experiment: Serum UA in OXO- and yeast extract-induced hyperuricemic mice; type: in vivo, Balb/C mice; conditions: BHA (10 μg and 50 μg intraperitoneal), P<0.05
# Procedure: Male Balb/C mice (n=50, 8 weeks: 18-22 g), purchased from Yisi Experimental Animal Technology Company Ltd, Jilin, China (SCXK (Ji)-2016-0003). These mice were housed in plastic cages and maintained on a 12-h light/12-h dark cycle (lights on 7:00-19:00 h) under standard laboratory conditions of 55% relative humidity and 23±1° C. They were given standard feed and tap water ad libitum. All experimental procedures were approved by the Animal Ethics Committee of Jilin University (Reference NO. 201605).
# Due to the presence of uricase in mice, a hyperuricemic mouse model was established by using uricase inhibitor and large amounts of purine. Mice were randomly divided into five groups (n=10), including the control group (NC), model group (MC), 20 mg/kg of AL (Shimao Tianjie Pharmaceutical Co. Ltd, Jiangsu, China) group, 10 μg BHA group (10BHA) and 50 μg BHA group (50BHA). Oral administration of AL and intraperitoneal injection of BHA were administered according to the required dose, and all mice were gavage fed 20 g/kg yeast extract powder 12 h prior to the administration of AL and BHA except for NC mice for 8 days. […]
# as §2
# [3] = system: factors related to oxidative stress; experiment: Factors related to oxidative stress in serum and liver of hyperuricemia mice (ELISA); type: in vivo, Balb/C mice; conditions: for Liver CAT / Liver GSH-PX / Liver MDA / Liver ROS / Liver SOD / Serum CAT / Serum GSH-PX / Serum MDA / Serum ROS / Serum SOD: hyperuricemia mice, mean ± S.D., n=10
# Procedure: as §1
# The levels of reactive oxygen species (ROS, 43355), malondialdehyde (MDA, 43124) glutathione peroxidase (GSH-Px, 43390), superoxide dismutase (SOD, 43125), catalase (CAT, 43356), creatinine (Cr, 43353) and blood urea nitrogen (BUN, 43352) in the serum and livers of mice were determined using ELISA Kits (Yuanye Bio-Technology Co. Ltd, Shanghai, China) according to the manufacturer's instructions.
# [4] = 10 μg BHA intraperitoneal (10BHA)
# [5] = 50 μg BHA intraperitoneal (50BHA)
substance,measurement,setting,value
N-butyrylated HA [BHA],swelling of the ankle compared to MSU treated group,"[1]; n=6, BHA 5-100 μg intra-articular, at 4 h and 12 h",significantly suppressed swelling
same,swelling of the ankle compared to MSU treated group,"[1]; n=6, BHA at doses of 10 μg, 50 μg and 100 μg, at 48 h",significant suppressing of swelling effect
same,reduction of XO levels in the liver compared to untreated mice,"xanthine oxidase (XO); 10 μg BHA, P<0.05",19.78%
same,XO activity in the livers of hyperuricemic mice,xanthine oxidase (XO); 50 μg BHA,no significant effect on XO activity
same,"production of pro-inflammatory cytokines (IL-1, IL-6, IL-8, TNF-α)",[2],decreased production of pro-inflammatory cytokines significantly
same,serum UA levels,hyperuricemic mice,significantly suppressed serum UA levels
same,decrease of ROS levels in the liver,"[3]; 10 μg BHA, P<0.01",8.04%
same,decrease of ROS levels in the serum,"[3]; 10 μg BHA, P<0.01",14.87%
same,improvement of liver SOD,"[3]; 10 μg BHA, P<0.05",12.77%
same,decrease of ROS levels in the liver,"[3]; 50 μg BHA, P<0.05",9.59%
same,decrease of ROS levels in the serum,"[3]; 50 μg BHA, P<0.05",14.63%
same,improvement of liver SOD,"[3]; 50 μg BHA, P<0.05",13.69%
same,Liver CAT,[3]; [4],13.1 ± 1.4 U/mg
same,Liver GSH-PX,[3]; [4],78.8 ± 8^ U/mg
same,Liver MDA,[3]; [4],3.4 ± 0.2 nmol/mg
same,Liver ROS,[3]; [4],70.8 ± 3.7 U/mg
same,Liver SOD,[3]; [4],56.8 ± 5.8 U/mg
same,Serum CAT,[3]; [4],43.3 ± 4.6 U/mL
same,Serum GSH-PX,[3]; [4],246.8 ± 10.2 U/mL
same,Serum MDA,[3]; [4],10.4 ± 0.5 nmol/mL
same,Serum ROS,[3]; [4],226.6 ± 17.9 U/mL
same,Serum SOD,[3]; [4],166.6 ± 11.8 U/mL
same,Liver CAT,[3]; [5],14.1 ± 1.5 U/mg
same,Liver GSH-PX,[3]; [5],77.9 ± 7.3 U/mg
same,Liver MDA,[3]; [5],3.5 ± 0.2 nmol/mg
same,Liver ROS,[3]; [5],69.6 ± 7.1 U/mg
same,Liver SOD,[3]; [5],57.2 ± 4.4 U/mg
same,Serum CAT,[3]; [5],41.5 ± 6^ U/mL
same,Serum GSH-PX,[3]; [5],231.4 ± 13.3 U/mL
same,Serum MDA,[3]; [5],10.5 ± 0.3 nmol/mL
same,Serum ROS,[3]; [5],227.2 ± 17.9 U/mL
same,Serum SOD,[3]; [5],161.2 ± 8 U/mL
